{
  "source": "patent US20120041009A1",
  "about": "“PYRIMIDINE COMPOUND AND ITS USE IN PEST CONTROL” (SUMITOMO CHEMICAL COMPANY, LIMITED, priority 2009, published 2012)",
  "system": "Tetranychus urticae",
  "assay": "Test Example 2: spray test against Tetranychus urticae on brush bean (Phaseolus vulgaris)",
  "assay_type": "in vivo",
  "conditions": "comparative compound, same conditions as in Test Example 2 (500 ppm); day not given",
  "experimental": "The formulation of each of the present compounds (1), (3), (5), (7) to (11), (13), (14), (18), (20), (22), (24), (26), (27), (29), (30) and (33) to (35) obtained in Formulation Example 1 was diluted with water so as to adjust the concentration of the active ingredient to 500 ppm to prepare a test spray solution.\nAbout sixty female imagines of Tetranychus urticae were released on brush bean (Phaseolus vulgaris) in the primary leaf stage, which had been potted in a polyethylene cup for 7 days after the seeding. One day after release of female imagines of Tetranychus urticae, 30 ml (per cup) of the test spray solution was sprayed over the brush bean seedling.\nOn the 8th and 13th day after spraying, the numbers of survival Tetranychus urticae on the leaf of the brush bean plant were examined, and the control rate was calculated by the following equation.\nControl rate=100×{1−(number of survival Tetranychus urticae in treated section)/(number of survival Tetranychus urticae in non-treated section)}",
  "data": [
    {"smiles": "O=c1[nH]c(-c2cncnc2C(F)(F)F)no1", "note": "[comparative compound (C)]", "values": [
      {"measurement": "control value", "value": "less than 30%"}
    ]}
  ]
}
